What follows are molecules tested against recombinant human baculovirus-expressed cMET (Homo sapiens (Human), UniProt P08581) (assay: C-MET Kinase Assay (HTRF KinEASE)). Settings: average of two or more determinations; read-out: c-MET IC50.
Type: biochemical
Protocol: The cMET kinase assay was performed in 384-well Fluotrac™ 200 HiBase microplates using the HTRF KinEASE™ assay described above for AXL except that the assay volume was reduced to half. Enzyme concentration was 8 ng/mL of recombinant human baculovirus-expressed cMET while the substrate concentrations were 0.1 μM and 0.02 μM for the biotinylated peptide and ATP, respectively. Instead of the Multidrop Combi, the BioRAPTR® FRD microfluidic workstation (Beckman Coulter, Brea, Calif.) was utilized for reagent additions.
Inhibition curves for compounds were generated by plotting percent control activity versus log 10 of the concentration of compound. IC50 values were calculated by nonlinear regression using the sigmoidal dose-response (variable slope) equation in GraphPad Prism as follows: y=bottom+(top−bottom)/(1+10(log IC50−x)*Hill Slope) where y is the % kinase activity at a given concentration of compound, x is the logarithm of the concentration of compound, bottom is the % of control kinase activity at the highest compound concentration tested, and top is the % of control kinase activity at the lowest compound concentration examined. The values for bottom and top were fixed at 0 and 100, respectively.

| Compound | IC50 [nM] |
| --- | --- |
| CCn1cc(C(=O)Nc2ccc(Oc3ccnc4cc(O)c(OC)cc34)c(F)c2)c(=O)n(-c2ccc(F)cc2)c1=O [Example 42, 1-Ethyl-3-(4-fluorophenyl)-2,4-dioxo-1,2,3,4-tetrahydropyrimidine-5-carboxylic acid [3-fluoro-4-(7-hydroxy-6-methoxyquinolin-4-yloxy)phenyl]-amide] | 10 to 100 |
| COc1cc2nccc(Oc3ccc(NC(=O)c4cn(CCOCc5ccccc5)c(=O)n(-c5ccc(F)cc5)c4=O)cc3)c2cc1OC [Example 19, 1-(2-Benzyloxyethyl)-3-(4-fluoro-phenyl)-2,4-dioxo-1,2,3,4-tetrahydropyrimidine-5-carboxylic acid [4-(6,7-dimethoxyquinolin-4-yloxy)-phenyl]-amide] | 10 to 100 |
| CCn1cc(C(=O)Nc2ccc(Oc3ccnc4cc(OC)c(OC)cc34)c(C3CC3)c2)c(=O)n(-c2ccc(F)cc2)c1=O [Example 59, 1-Ethyl-3-(4-fluoro-phenyl)-2,4-dioxo-1,2,3,4-tetrahydropyrimidine-5-carboxylic acid [3-cyclopropyl-4-(6,7-dimethoxy-quinolin-4-yloxy)-phenyl]-amide] | 10 to 100 |
| CCOc1cc2nccc(Oc3ccc(NC(=O)c4nn(CC)c(=O)n(-c5ccc(F)cc5)c4=O)cc3F)c2cc1OCC [Example 109, 2-Ethyl-4-(4-fluorophenyl)-3,5-dioxo-2,3,4,5-tetrahydro[1,2,4]triazine-6-carboxylic acid [4-(6,7-diethoxy-quinolin-4-yloxy)-3-fluoro-phenyl]-amide] | 10 to 100 |
| COc1cc2nccc(Oc3ccc(NC(=O)c4cn(C(C)C)c(=O)n(-c5ccc(F)cc5)c4=O)c(N(C)C)c3)c2cc1OC [Example 154, 3-(4-Fluoro-phenyl)-1-isopropyl-2,4-dioxo-1,2,3,4-tetrahydro-pyrimidine-5-carboxylic acid [4-(6,7-dimethoxy-quinolin-4-yloxy)-2-dimethylamino-phenyl]-amide] | 101 to 1000 |
| COc1cc2nccc(Sc3ccc(NC(=O)c4cn(C(C)C)c(=O)n(-c5ccc(F)cc5)c4=O)cc3)c2cc1OC [Example 138, 3-(4-Fluoro-phenyl)-1-isopropyl-2,4-dioxo-1,2,3,4-tetrahydro-pyrimidine-5-carboxylic acid [4-(6,7-dimethoxy-quinolin-4-ylsulfanyl)-phenyl]-amide] | 10 to 100 |
| COc1cc2c(Oc3ccc(NC(=O)c4cn(C(C)C)c(=O)n(-c5ccc(F)cc5)c4=O)cc3F)ccnc2cc1OCCCN1CCOCC1 [Example 47, 3-(4-Fluorophenyl)-1-isopropyl-2,4-dioxo-1,2,3,4-tetrahydropyrimidine-5-carboxylic acid {3-fluoro-4-[6-methoxy-7-(3-morpholin-4-yl-propoxy)-quinolin-4-yloxy]phenyl}-amide] | 10 to 100 |
| COc1cc2nccc(Oc3c(C)cc(NC(=O)c4cn(C(C)C)c(=O)n(-c5ccc(F)cc5)c4=O)cc3C)c2cc1OC [Example 162, 3-(4-Fluoro-phenyl)-1-isopropyl-2,4-dioxo-1,2,3,4-tetrahydro-pyrimidine-5-carboxylic acid [4-(6,7-dimethoxy-quinolin-4-yloxy)-3,5-dimethyl-phenyl]-amide] | 10 to 100 |
| COc1cc2nccc(Oc3ccc(NC(=O)c4nn(C)c(=O)n(Cc5cc(C)on5)c4=O)cc3F)c2cc1OC [Example 116, 2-Methyl-4-(5-methyl-isoxazol-3-ylmethyl)-3,5-dioxo-2,3,4,5-tetrahydro-[1,2,4]triazine-6-carboxylic acid [4-(6,7-dimethoxy-quinolin-4-yloxy)-3-fluoro-phenyl]-amide] | 10 to 100 |
| CCn1cc(C(=O)Nc2ccc(Oc3ccnc4cc(OCCN5CCOCC5)c(OC)cc34)c(F)c2)c(=O)n(-c2ccc(F)cc2)c1=O [Example 45, 1-Ethyl-3-(4-fluorophenyl)-2,4-dioxo-1,2,3,4-tetrahydropyrimidine-5-carboxylic acid {3-fluoro-4-[6-methoxy-7-(2-morpholin-4-yl-ethoxy)-quinolin-4-yloxy]phenyl}-amide] | 10 to 100 |
| COc1cc2nccc(Oc3ccc(NC(=O)c4cn(CC=C(C)C)c(=O)n(CC=C(C)C)c4=O)cc3F)c2cc1OC [Example 97, 1,3-Bis-(3-methyl-but-2-enyl)-2,4-dioxo-1,2,3,4-tetrahydro-pyrimidine-5-carboxylic acid [4-(6,7-dimethoxy-quinolin-4-yloxy)-3-fluoro-phenyl]-amide] | 101 to 1000 |
| CCn1cc(C(=O)Nc2ccc(Oc3ccnc4cc(OCCOC)c(OC)cc34)c(F)c2)c(=O)n(-c2ccc(F)cc2)c1=O [Example 44, 1-Ethyl-3-(4-fluorophenyl)-2,4-dioxo-1,2,3,4-tetrahydropyrimidine-5-carboxylic acid {3-fluoro-4-[6-methoxy-7-(2-methoxyethoxy)quinolin-4-yloxy]-phenyl}-amide] | 10 to 100 |
| CCn1nc(C(=O)Nc2ccc(Oc3ccnc4cc(OC)c(OC)cc34)cn2)c(=O)n(-c2ccc(F)cc2)c1=O [Example 164, 2-Ethyl-4-(4-fluoro-phenyl)-3,5-dioxo-2,3,4,5-tetrahydro-1,2,4-triazine-6-carboxylic acid [5-(6,7-dimethoxy-quinolin-4-yloxy)-pyridin-2-yl]-amide] | 10 to 100 |
| CCn1cc(C(=O)Nc2ccc(Oc3ccnc4cc(OC)c(OC)cc34)c(Cl)c2)c(=O)n(-c2ccc(F)cc2)c1=O [Example 152] | 10 to 100 |
| COc1cc2nccc(Oc3ccc(NC(=O)c4nn(C)c(=O)n(CCn5cccn5)c4=O)cc3F)c2cc1OC [Example 120, 2-Methyl-3,5-dioxo-4-(2-pyrazol-1-yl-ethyl)-2,3,4,5-tetrahydro-[1,2,4]triazine-6-carboxylic acid [4-(6,7-dimethoxyquinolin-4-yloxy)-3-fluorophenyl]-amide] | 10 to 100 |
| CCn1cc(C(=O)Nc2ccc(Oc3ccnc4cc(OC)c(OC)cc34)c(C(C)C)c2)c(=O)n(-c2ccc(F)cc2)c1=O [Example 155, 1-Ethyl-3-(4-fluoro-phenyl)-2,4-dioxo-1,2,3,4-tetrahydro-pyrimidine-5-carboxylic acid [4-(6,7-dimethoxy-quinolin-4-yloxy)-3-isopropyl-phenyl]-amide] | 10 to 100 |
| COc1cc2nccc(Oc3ccc(NC(=O)c4cn(CC(=O)OC(C)(C)C)c(=O)n(-c5ccc(F)cc5)c4=O)cc3F)c2cc1OC [Example 70, [5-[4-(6,7-Dimethoxy-quinolin-4-yloxy)-3-fluoro-phenylcarbamoyl]-3-(4-fluoro-phenyl)-2,4-dioxo-3,4-dihydro-2H-pyrimidin-1-yl]-acetic acid tert-butyl ester] | 10 to 100 |
| COc1cc2nccc(Oc3ccc(NC(=O)c4cn(CCCOCc5ccccc5)c(=O)n(-c5ccc(F)cc5)c4=O)cc3F)c2cc1OC [Example 13, 1-(3-Benzyloxypropyl)-3-(4-fluorophenyl)-2,4-dioxo-1,2,3,4-tetrahydropyrimidine-5-carboxylic acid [4-(6,7-dimethoxyquinolin-4-yloxy)-3-fluorophenyl]-amide] | 10 to 100 |
| CCn1cc(C(=O)Nc2ccc(Sc3ccnc4cc(OC)c(OC)cc34)cc2)c(=O)n(-c2ccc(F)cc2)c1=O [Example 137, 1-Ethyl-3-(4-fluorophenyl)-2,4-dioxo-1,2,3,4-tetrahydro-pyrimidine-5-carboxylic acid [4-(6,7-dimethoxy-quinolin-4-ylsulfanyl)-phenyl]-amide] | 10 to 100 |
| COc1cc2c(Oc3ccc(NC(=O)c4cn(C(C)C)c(=O)n(-c5ccc(F)cc5)c4=O)cc3F)ccnc2cc1OCc1ccccc1 [Example 41, 3-(4-Fluorophenyl)-1-isopropyl-2,4-dioxo-1,2,3,4-tetrahydropyrimidine-5-carboxylic acid [4-(7-benzyloxy-6-methoxyquinolin-4-yloxy)-3-fluorophenyl]-amide] | 101 to 1000 |
| COc1cc2nccc(Oc3ccc(NC(=O)c4cn(C(C(C)=O)C(=O)N(C)C)c(=O)n(-c5ccc(F)cc5)c4=O)cc3F)c2cc1OC (stereo not shown) [Example 84, 1-(1-Dimethylcarbamoyl-2-oxo-propyl)-3-(4-fluoro-phenyl)-2,4-dioxo-1,2,3,4-tetrahydro-pyrimidine-5-carboxylic acid [4-(6,7-dimethoxy-quinolin-4-yloxy)-3-fluoro-phenyl]-amide] | 10 to 100 |
| COc1cc2nccc(Nc3ccc(NC(=O)c4cn(C(C)C)c(=O)n(-c5ccc(F)cc5)c4=O)cc3)c2cc1OC [Example 135, 3-(4-Fluorophenyl)-1-isopropyl-2,4-dioxo-1,2,3,4-tetrahydropyrimidine-5-carboxylic acid [4-(6,7-dimethoxyquinolin-4-ylamino)-phenyl]-amide] | 101 to 1000 |
| CCn1c(=O)c(C(=O)Nc2ccc(Oc3ccnc4cc(OC)c(OC)cc34)c(F)c2)nn(C)c1=O [Example 123, 4-Ethyl-2-methyl-3,5-dioxo-2,3,4,5-tetrahydro-[1,2,4]triazine-6-carboxylic acid [4-(6,7-dimethoxyquinolin-4-yloxy)-3-fluoro-phenyl]-amide] | 101 to 1000 |
| COc1cc2nccc(Oc3ccc(NC(=O)c4cn(CC5CC5)c(=O)n(-c5ccc(F)cc5)c4=O)nc3)c2cc1OC [Example 35, 1-Cyclopropylmethyl-3-(4-fluorophenyl)-2,4-dioxo-1,2,3,4-tetrahydropyrimidine-5-carboxylic acid [5-(6,7-dimethoxyquinolin-4-yloxy)pyridin-2-yl]-amide] | 10 to 100 |
| CCn1cc(C(=O)Nc2ccc(Oc3ccnc4cc(OCc5ccccc5)c(OC)cc34)c(F)c2)c(=O)n(-c2ccc(F)cc2)c1=O [Example 40, 1-Ethyl-3-(4-fluorophenyl)-2,4-dioxo-1,2,3,4-tetrahydropyrimidine-5-carboxylic acid [4-(7-benzyloxy-6-methoxyquinolin-4-yloxy)-3-fluorophenyl]-amide] | 10 to 100 |

From patent publication US9745283B2, “Uracil derivatives as AXL and c-MET kinase inhibitors” (priority 2011, dated 2017)
